Measurements as given in patent publication US20090270338A1, “DIARYL-CYCLYLALKYL DERIVATIVES AS CALCIUM CHANNEL BLOCKERS” (priority 2008, published 2009).

Assays:
[1] = molecular target: T1, Human Cav2.2 channels (Homo sapiens, UniProt Q00975); test: Fluorescent assay for Cav2.2 channels using potassium depolarization (Table 2, In Vitro Activity, Cav 2.2 Activity); format: cell-based; conditions: for IC50: 30 mM K; for inhibition at 10 µM: read-out: % Inh at 10 μM; for inhibition at 30 µM: read-out: % Inh at 30 μM
T1 construct: expressed in transfected cells
T1 sequence (Q00975 whole entry): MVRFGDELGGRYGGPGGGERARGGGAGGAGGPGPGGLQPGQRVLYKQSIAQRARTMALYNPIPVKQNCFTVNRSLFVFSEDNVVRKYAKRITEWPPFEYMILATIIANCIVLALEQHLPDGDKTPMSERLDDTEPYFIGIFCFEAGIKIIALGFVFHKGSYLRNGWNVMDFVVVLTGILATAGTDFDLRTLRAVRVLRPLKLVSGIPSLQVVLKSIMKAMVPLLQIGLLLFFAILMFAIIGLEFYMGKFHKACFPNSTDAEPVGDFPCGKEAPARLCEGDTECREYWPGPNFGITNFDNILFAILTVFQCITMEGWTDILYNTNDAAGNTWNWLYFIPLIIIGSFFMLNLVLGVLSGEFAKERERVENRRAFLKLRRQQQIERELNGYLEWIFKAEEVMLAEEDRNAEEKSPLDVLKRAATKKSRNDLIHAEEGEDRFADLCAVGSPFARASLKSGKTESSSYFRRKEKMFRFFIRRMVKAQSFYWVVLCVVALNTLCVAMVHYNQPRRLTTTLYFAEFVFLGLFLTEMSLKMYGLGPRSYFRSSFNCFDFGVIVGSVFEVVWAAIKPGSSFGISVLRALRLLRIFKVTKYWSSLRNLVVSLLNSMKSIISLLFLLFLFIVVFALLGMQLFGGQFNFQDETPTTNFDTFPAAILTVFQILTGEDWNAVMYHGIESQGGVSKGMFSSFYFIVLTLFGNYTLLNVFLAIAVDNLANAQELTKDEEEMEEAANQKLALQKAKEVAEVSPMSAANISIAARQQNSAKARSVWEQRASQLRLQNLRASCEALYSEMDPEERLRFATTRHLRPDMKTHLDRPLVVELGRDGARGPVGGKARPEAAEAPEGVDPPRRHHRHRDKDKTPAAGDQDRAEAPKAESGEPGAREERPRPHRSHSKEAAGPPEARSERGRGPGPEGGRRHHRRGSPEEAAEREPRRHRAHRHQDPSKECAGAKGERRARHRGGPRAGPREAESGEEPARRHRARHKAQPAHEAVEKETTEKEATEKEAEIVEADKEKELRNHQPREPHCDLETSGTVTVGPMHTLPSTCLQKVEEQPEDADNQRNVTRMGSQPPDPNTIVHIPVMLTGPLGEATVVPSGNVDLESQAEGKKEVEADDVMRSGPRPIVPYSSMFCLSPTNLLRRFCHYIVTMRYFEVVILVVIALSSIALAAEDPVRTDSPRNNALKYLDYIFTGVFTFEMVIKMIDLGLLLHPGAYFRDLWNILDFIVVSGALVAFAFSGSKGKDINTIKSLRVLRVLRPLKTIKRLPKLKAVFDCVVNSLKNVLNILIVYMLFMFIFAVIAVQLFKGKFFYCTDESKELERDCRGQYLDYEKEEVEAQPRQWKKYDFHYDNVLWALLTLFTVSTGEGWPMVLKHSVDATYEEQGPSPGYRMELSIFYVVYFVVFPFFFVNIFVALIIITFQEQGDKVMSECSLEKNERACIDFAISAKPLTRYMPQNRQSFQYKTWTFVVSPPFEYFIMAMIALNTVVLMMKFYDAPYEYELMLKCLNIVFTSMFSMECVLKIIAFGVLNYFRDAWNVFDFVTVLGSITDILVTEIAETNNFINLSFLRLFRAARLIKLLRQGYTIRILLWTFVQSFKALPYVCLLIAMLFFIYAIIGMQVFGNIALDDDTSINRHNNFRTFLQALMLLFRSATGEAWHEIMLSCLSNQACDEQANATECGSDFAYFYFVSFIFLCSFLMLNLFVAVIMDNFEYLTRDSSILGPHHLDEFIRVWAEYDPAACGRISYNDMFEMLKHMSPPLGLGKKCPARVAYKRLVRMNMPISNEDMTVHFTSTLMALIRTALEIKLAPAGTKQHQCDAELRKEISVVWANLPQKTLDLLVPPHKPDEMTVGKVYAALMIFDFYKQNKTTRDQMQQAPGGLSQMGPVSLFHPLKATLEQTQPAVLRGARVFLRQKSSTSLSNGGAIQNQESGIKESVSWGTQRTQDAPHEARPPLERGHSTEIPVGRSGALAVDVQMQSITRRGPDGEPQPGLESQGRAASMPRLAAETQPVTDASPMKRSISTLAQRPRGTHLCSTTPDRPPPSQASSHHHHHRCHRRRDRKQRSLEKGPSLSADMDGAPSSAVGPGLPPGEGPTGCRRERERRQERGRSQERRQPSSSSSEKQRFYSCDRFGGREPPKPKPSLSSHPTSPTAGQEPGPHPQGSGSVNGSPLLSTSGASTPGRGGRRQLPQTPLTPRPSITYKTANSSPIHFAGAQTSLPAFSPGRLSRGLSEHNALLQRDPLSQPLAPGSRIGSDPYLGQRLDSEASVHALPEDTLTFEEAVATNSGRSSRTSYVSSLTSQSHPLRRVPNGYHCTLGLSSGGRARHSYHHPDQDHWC
T1 sequence (P54289 25-1103 partner): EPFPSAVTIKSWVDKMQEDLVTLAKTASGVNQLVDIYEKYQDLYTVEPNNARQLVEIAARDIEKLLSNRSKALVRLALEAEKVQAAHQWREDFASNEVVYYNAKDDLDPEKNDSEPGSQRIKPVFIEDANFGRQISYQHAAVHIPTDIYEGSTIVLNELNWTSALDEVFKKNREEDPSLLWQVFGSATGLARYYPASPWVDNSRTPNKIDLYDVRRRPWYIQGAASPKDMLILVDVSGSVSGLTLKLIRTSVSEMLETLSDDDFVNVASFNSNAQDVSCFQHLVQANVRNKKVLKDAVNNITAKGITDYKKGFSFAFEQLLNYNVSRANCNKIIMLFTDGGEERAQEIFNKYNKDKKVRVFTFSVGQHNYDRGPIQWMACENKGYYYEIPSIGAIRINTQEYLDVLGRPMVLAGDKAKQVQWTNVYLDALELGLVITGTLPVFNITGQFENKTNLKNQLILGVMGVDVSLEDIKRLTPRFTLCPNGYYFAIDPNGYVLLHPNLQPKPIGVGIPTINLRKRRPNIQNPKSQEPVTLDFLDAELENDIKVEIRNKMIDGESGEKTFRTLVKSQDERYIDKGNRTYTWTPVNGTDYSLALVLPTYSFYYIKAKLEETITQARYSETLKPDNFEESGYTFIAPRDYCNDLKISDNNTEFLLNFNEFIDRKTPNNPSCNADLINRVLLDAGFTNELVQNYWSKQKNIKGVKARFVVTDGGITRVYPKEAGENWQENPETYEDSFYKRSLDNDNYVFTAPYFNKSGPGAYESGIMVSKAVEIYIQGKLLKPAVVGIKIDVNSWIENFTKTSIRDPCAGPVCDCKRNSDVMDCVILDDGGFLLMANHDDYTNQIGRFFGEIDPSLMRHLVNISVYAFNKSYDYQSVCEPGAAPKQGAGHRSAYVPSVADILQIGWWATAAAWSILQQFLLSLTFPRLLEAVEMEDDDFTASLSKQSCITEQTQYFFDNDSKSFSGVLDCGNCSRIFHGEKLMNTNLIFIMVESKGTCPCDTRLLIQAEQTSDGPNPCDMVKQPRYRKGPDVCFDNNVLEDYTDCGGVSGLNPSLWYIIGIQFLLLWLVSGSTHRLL
T1 sequence (P54284 whole entry partner): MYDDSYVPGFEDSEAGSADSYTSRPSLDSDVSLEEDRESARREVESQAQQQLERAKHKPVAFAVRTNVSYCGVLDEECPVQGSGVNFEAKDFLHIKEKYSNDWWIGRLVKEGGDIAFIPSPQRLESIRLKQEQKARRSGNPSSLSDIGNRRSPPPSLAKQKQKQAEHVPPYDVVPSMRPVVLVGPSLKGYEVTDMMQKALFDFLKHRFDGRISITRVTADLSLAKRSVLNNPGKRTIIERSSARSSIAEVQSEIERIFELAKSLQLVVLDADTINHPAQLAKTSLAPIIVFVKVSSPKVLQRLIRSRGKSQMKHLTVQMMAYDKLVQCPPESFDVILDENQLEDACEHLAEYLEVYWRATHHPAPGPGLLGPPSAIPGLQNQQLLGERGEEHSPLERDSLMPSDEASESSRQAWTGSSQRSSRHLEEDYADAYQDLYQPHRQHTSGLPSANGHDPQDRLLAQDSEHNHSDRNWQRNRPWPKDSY
From the text: Human Cav2.2 channels were stably expressed in HEK293 cells along with alpha2-delta and beta subunits of voltage-gated calcium channels. An inwardly rectifying potassium channel (Kir2.3) was also expressed in these cells to allow more precise control of the cell membrane potential by extracellular potassium concentration. At low bath potassium concentration, the membrane potential is relatively negative, and is depolarized as the bath potassium concentration is raised. In this way, the bath potassium concentration can be used to regulate the voltage-dependent conformations of the channels. Compounds are incubated with cells in the presence of low (4 mM) potassium or elevated (12, 25 or 30 mM) potassium to determine the affinity for compound block of resting (closed) channels at 4 mM potassium or affinity for block of open and inactivated channels at 12, 25 or 30 mM potassium. After the incubation period, Cav2.2 channel opening is triggered by addition of higher concentration of potassium (70 mM final concentration) to further depolarize the cell. The degree of state-dependent block can be estimated from the inhibitory potency of compounds after incubation in different potassium concentrations.
Calcium influx through Cav2.2 channels is determined using a calcium sensitive fluorescent dye in combination with a fluorescent plate reader. Fluorescent changes were measured with either a VIPR (Aurora Instruments) or FLIPR (Molecular Devices) plate reader.
1. Seed cells in Poly-D-Lysine Coated 96 or 384-well plate and keep in a 37° C.-10% CO2 incubator overnight 2. Remove media, wash cells with 0.2 mL (96-well plate) or 0.05 mL (384-well plate) Dulbecco's Phosphate Buffered Saline (D-PBS) with calcium & magnesium (Invitrogen; 14040) 3. Add 0.1 mL (96-well plate) or 0.05 mL (384-well plate) of 4 μM fluor-4 (Molecular Probes; F-14202) and 0.02% Pluronic acid (Molecular Probes; P-3000) prepared in D-PBS with calcium & magnesium (Invitrogen; 14040) supplemented with 10 mM Glucose & 10 mM Hepes/NaOH; pH 7.4 4. Incubate in the dark at 25° C. for 60-70 min 5. Remove dye, wash cells with 0.1 mL (96-well plate) or 0.06 mL (384-well plate) of 4, 12, 25, or 30 mM Potassium Pre-polarization Buffer (PPB) 6. Add 0.1 mL (96-well plate) or 0.03 mL (384-well plate) of 4, 12, 25, 30 mM PPB with or without test compound 7. Incubate in the dark at 25° C. for 30 min 8. Read cell plate on VIPR instrument, Excitation=480 nm, Emission=535 nm 9. With VIPR continuously reading, add 0.1 mL (96-well plate) or 0.03 mL (384-well plate) of Depolarization Buffer (DB), which is 2× the final assay concentration, to the cell plate.

[2] = tested on: T-type over L-type channels; conditions: cited from earlier work

Compound | % Inh at 10 μM [1] [%] | % Inh at 30 μM [1] [%] | IC50 [1] [nM] | inhibition at 10 µM [1] [%] | inhibition at 30 µM [1] [%] | fold selective for T-type over L-type channels [2]
3,3-diphenyl-N-(1-(4-phenylpiperazine- 1-carbonyl)cyclohexyl)propanamide [Compound 5] | 92 | 84 | 380 | – | – | –
CC(C)(C)N1CCN(C(=O)C2(NC(=O)CC(c3ccccc3)c3ccccc3)CCCCC2)CC1 [Compound 1, N-(1-(4-tert-butylpiperazine-1-carbonyl)cyclohexyl)-3,3-diphenylpropanamide] | – | – | – | 42 | 65 | –
Cc1ccccc1C(CC(=O)NC1(C(=O)N2CCN(C(C)(C)C)CC2)CCCCC1)c1ccccc1C [Compound 2, N-(1-(4-tert-butylpiperazine-1-carbonyl)cyclohexyl)-3,3-dio-tolylpropanamide] | – | – | – | 67 | 92 | –
Cc1ccccc1C(CC(=O)NC1(C(=O)N2CCN(c3ccccc3)CC2)CCCCC1)c1ccccc1C [Compound 3, N-(1-(4-phenylpiperazine-1-carbonyl)cyclohexyl)-3,3-dio-tolylpropanamide] | – | – | 440 | 95 | 96 | –
O=C(CC(c1ccccc1)c1ccccc1)NC1(C(=O)N2CCN(c3ccccc3)CC2)CCCCC1 [Compound 4, 3,3-diphenyl-N-(1-(4-phenylpiperazine-1-carbonyl)cyclohexyl)propanamide] | – | – | 340 | 80 | 90 | –
O=C(CC(c1ccccc1)c1ccccc1)NC1(C(=O)NCc2cccc(C(F)(F)F)c2)CCCCC1 [Compound 7, 1-(3,3-diphenylpropanamido)-N-(3-(trifluoromethyl)benzyl)cyclohexanecar-boxamide] | – | – | 190 | 99 | 102 | –
O=C(CC(c1ccccc1)c1ccccc1)NC1(C(=O)NCc2ccc(F)cc2)CCCCC1 [Compound 8, 1-(3,3-diphenylpropanamido)-N-(4-fluorobenzyl)cyclohexanecarboxamide] | – | – | 190 | 99 | 102 | –
COc1ccc(CNC(=O)C2(NC(=O)CC(c3ccccc3)c3ccccc3)CCCCC2)cc1 [Compound 9, 1-(3,3-diphenylpropanamido)-N-(4-methoxybenzyl)cyclohexane carboxamide] | – | – | 170 | 97 | 102 | –
O=C(CC(c1ccccc1)c1ccccc1)NC1(C(=O)NCc2ccc(F)cc2F)CCCCC1 [Compound 10, N-(2,4-difluorobenzyl)-1-(3,3-diphenylpropanamido)cyclohexanecarboxamide] | – | – | 430 | 96 | 101 | –
O=C(CC(c1ccccc1)c1ccccc1)NC1(C(=O)N2CCN(c3ccc(Cl)cc3)CC2)CCCCC1 [Compound 11, N-(1-(4-(4-chlorophenyl)piperazine-1-carbonyl)cyclohexyl)-3,3-diphenylpropanamide] | – | – | 690 | 93 | 101 | –
Cc1ccc(N2CCN(C(=O)C3(NC(=O)CC(c4ccccc4)c4ccccc4)CCCCC3)CC2)cc1C [Compound 12, N-(1-(4-(3,4-dimethylphenyl)piperazine-1-carbonyl)cyclohexyl)-3,3-diphenylpropanamide] | – | – | 370 | 95 | 98 | –
O=C(CC(c1ccccc1)c1ccccc1)NC1(C(=O)N2CCN(c3ccc(C(F)(F)F)cc3)CC2)CCCCC1 [Compound 13, 3,3-diphenyl-N-(1-(4-(4-(trifluoromethyl)phenyl)piperazine-1-carbonyl)cyclohexyl)propanamide] | – | – | 590 | 96 | 95 | –
O=C(CC(c1ccccc1)c1ccccc1)NC1(C(=O)N2CCN(c3ccc(F)cc3F)CC2)CCCCC1 [Compound 14, N-(1-(4-(2,4-difluorophenyl)piperazine-1-carbonyl)cyclohexyl)-3,3-diphenylpropanamide] | – | – | 320 | 81 | 86 | –
O=C(CC(c1ccccc1)c1ccccc1)NC1(C(=O)N2CCN(c3cccc(F)c3)CC2)CCCCC1 [Compound 15, N-(1-(4-(3-fluorophenyl)piperazine-1-carbonyl)cyclohexyl)-3,3-diphenylpropanamide] | – | – | 330 | 72 | 81 | –
Cc1ccnc(N2CCN(C(=O)C3(NC(=O)CC(c4ccccc4)c4ccccc4)CCCCC3)CC2)c1 [Compound 16, N-(1-(4-(4-methylpyridin-2-yl)piperazine-1-carbonyl)cyclohexyl)-3,3-diphenylpropanamide] | – | – | 2750 | 81 | 85 | –
CS(=O)(=O)c1ccc(CNC(=O)C2(NC(=O)CC(c3ccccc3)c3ccccc3)CCCCC2)cc1 [Compound 17, 1-(3,3-diphenylpropanamido)-N-(4-(methylsulfonyl)benzyl)cyclohexane carboxamide] | – | – | – | 86 | 96 | –
O=C(CC(c1ccccc1)c1ccccc1)NC1(C(=O)NCc2ccc(O)cc2)CCCCC1 [Compound 18, 1-(3,3-diphenylpropanamido)-N-(4-hydroxybenzyl)cyclohexane carboxamide] | – | – | – | 87 | 97 | –
Cc1cnc(CNC(=O)C2(NC(=O)CC(c3ccccc3)c3ccccc3)CCCCC2)cn1 [Compound 19, 1-(3,3-diphenylpropanamido)-N-((5-methylpyrazin-2-yl)methyl)cyclohexanecarboxamide] | – | – | – | 62 | 93 | –
Cc1cc(CNC(=O)C2(NC(=O)CC(c3ccccc3)c3ccccc3)CCCCC2)no1 [Compound 20, 1-(3,3-diphenylpropanamido)-N-((5-methylisoxazol-3-yl)methyl)cyclohexanecarboxamide] | – | – | – | 71 | 86 | –
Cc1cnccc1CNC(=O)C1(NC(=O)CC(c2ccccc2)c2ccccc2)CCCCC1 [Compound 21, 1-(3,3-diphenylpropanamido)-N-((3-methylpyridin-4-yl)methyl)cyclohexanecarboxamide] | – | – | – | 14 | 51 | –
O=C(CC(c1ccccc1)c1ccccc1)NC1(C(=O)NCc2nccs2)CCCCC1 [Compound 22, 1-(3,3-diphenylpropanamido)-N-(thiazol-2-ylmethyl)cyclohexane carboxamide] | – | – | – | 55 | 77 | –
Cc1cccnc1CNC(=O)C1(NC(=O)CC(c2ccccc2)c2ccccc2)CCCCC1 [Compound 23, 1-(3,3-diphenylpropanamido)-N-((3-methylpyridin-2-yl)methyl)cyclohexanecarboxamide] | – | – | – | 81 | 88 | –
COCC(=O)O[C@]1(CCN(C)CCCc2nc3ccccc3[nH]2)CCc2cc(F)ccc2[C@@H]1C(C)C [Mibefradil] | – | – | – | – | – | 10-30 fold
N-(1-(4-(4-fluorophenyl)piperazine-1- carbonyl)cyclohexyl)-3,3- diphenylpropanamide [Compound 6] | 99 | 100 | 280 | – | – | –
